Reference: PubChem BioAssay (NCI)
Several values for one entry are separate records, joined by “and”; a condition that tells them apart may be missing. Identical values can stand only once.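 Values below derive from 48-hour exposures of cells grown in 96-well plates, with endpoints linearly interpolated between the two concentrations bracketing the appropriate inhibition level. The concentration for 50% growth inhibition is given as GI50. TGI: concentration producing complete growth inhibition.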

How the values were obtained:
Experiment in all cases: inhibition of tumour cell growth, NCI panel, 48 h
HL-60(TB) leukemia = test system: HL-60(TB) leukemia
M14 melanoma = test system: M14 melanoma
HCT-116 colon = test system: HCT-116 colon
SK-MEL-28 melanoma = test system: SK-MEL-28 melanoma
OVCAR-3 ovarian = test system: OVCAR-3 ovarian
CAKI-1 renal = test system: CAKI-1 renal
HT29 colon = test system: HT29 colon
NCI-H460 lung = test system: NCI-H460 lung
KM12 colon = test system: KM12 colon
MDA-MB-231 breast = test system: MDA-MB-231 breast

| SMILES | TGI (HL-60(TB) leukemia) [µM] | TGI (M14 melanoma) [µM] | TGI (HCT-116 colon) [µM] | TGI (SK-MEL-28 melanoma) [µM] | TGI (OVCAR-3 ovarian) [µM] | TGI (CAKI-1 renal) [µM] | TGI (HT29 colon) [µM] | GI50 (NCI-H460 lung) [µM] | TGI (NCI-H460 lung) [µM] | GI50 (M14 melanoma) [µM] | GI50 (KM12 colon) [µM] | TGI (KM12 colon) [µM] | GI50 (HCT-116 colon) [µM] | GI50 (MDA-MB-231 breast) [µM] | TGI (MDA-MB-231 breast) [µM] | GI50 (SK-MEL-28 melanoma) [µM] | GI50 (CAKI-1 renal) [µM] | GI50 (HT29 colon) [µM] | GI50 (OVCAR-3 ovarian) [µM] | GI50 (HL-60(TB) leukemia) |
| --- | --- | --- | --- | --- | --- | --- | --- | --- | --- | --- | --- | --- | --- | --- | --- | --- | --- | --- | --- | --- |
| CCOC(=O)C(=O)Nc1ccc(Cl)c(C(F)(F)F)c1 | > 100 | > 100 | > 100 | > 100 | > 100 | > 100 | > 100 | – | – | – | – | – | – | – | – | – | – | – | – | – |
| CCCCCCN1CCN(Cc2ccc(N(CC)CC)cc2)C(=O)C1=O | – | 9.08 | > 100 | > 100 | – | > 100 | > 100 | 3.35 | 17.3 | 2.3 | 2.47 | 82.4 | 3.92 | 4.97 | > 100 | 7.17 | 7.23 | 3.34 | – | – |
| c1cncc(CNc2ncn[nH]2)c1 | – | > 100 | > 100 | > 100 | > 100 | > 100 | > 100 | – | > 100 | – | – | > 100 | – | – | > 100 | – | – | – | – | – |
| CC1CC2(CCC1OCc1ccccc1)OCCO2 (stereo not drawn) | > 100 | > 100 | > 100 | – | > 100 | > 100 | > 100 | – | > 100 | – | – | > 100 | – | – | – | – | – | – | – | – |
| COc1ccc(C(O)/C(=C/n2ccnc2)c2ccccc2)cc1OC (stereo not drawn) | > 100 | > 100 | > 100 | > 100 | > 100 | – | > 100 | – | > 100 | – | – | > 100 | – | – | – | – | – | – | – | – |
| Cc1ccc2[nH]c(C(=O)NN3C(=O)C(C)SC34CCCCC4C)c(-c3ccccc3)c2c1 (stereo not drawn) | – | 38.8 | 35.6 | 38.8 | 31.7 | 40.7 | 39.3 | 22 | 58.5 | 20.2 | 18.5 | 39.9 | 17.4 | 17.4 | 34.9 | 19.4 | 17 | 15.5 | 14.4 | – |
| NC(=O)NCCSC1CCCCC1O (stereo not drawn) | – | > 100 | > 100 | > 100 | > 100 | > 100 | > 100 | – | > 100 | – | – | > 100 | – | – | > 100 | – | – | – | – | – |
| CN1CCC(n2[nH]c(-c3ccccc3)c(Cc3ccccc3)c2=O)CC1 | – | > 100 | > 100 | > 100 | > 100 | > 100 | > 100 | – | > 100 | – | – | > 100 | – | – | > 100 | – | – | – | – | – |
| C=CCN(CC=C)CC(C(C)=O)C(c1ccccc1)c1c(O)c2ccccc2oc1=O (stereo not drawn) | > 100 | > 100 | > 100 | > 100 | – | > 100 | > 100 | – | – | – | – | 37.9 | – | – | – | – | – | – | – | – |
| NC(N)=N/N=C/c1c(-c2ccc(Cl)c([N+](=O)[O-])c2)nc2ccccn12 | – | – | 1.55 | – | 3.11 | 42.4 | > 100 | – | – | – | – | – | 0.362 | 1.69 | 3.29 | – | 11.8 | 1.42 | 1.59 | – |
| CC[C@@]1(O)C(=O)OCc2c1cc1n(c2=O)Cc2cc3c(NC(=O)CN)cccc3nc2-1 | – | 2.8 | > 56.1 | > 100 | 9.34 | 2.14 | > 100 | – | 2.94 | – | – | 34.6 | – | – | > 73 | – | – | – | – | – |
| CC(=O)Nc1ccc(-c2nnc(SCC(=O)Nc3ccccc3C)o2)cc1 | > 100 | > 100 | 29.4 | > 100 | > 100 | – | > 100 | – | > 100 | – | – | > 100 | – | – | – | – | – | – | – | – |
| COc1ccc2c(c1)CCCC1C3=NCCC3(C)CSC21 (stereo not drawn) | 44.7 | > 100 | > 100 | > 100 | > 100 | – | > 100 | – | > 100 | – | – | > 100 | – | – | – | – | – | – | – | – |
| O=C1CC/C(=C\COc2ccc3ccc(=O)oc3c2)O1 | – | 13.9 | 22.8 | 32.7 | 22 | 20.6 | 17.3 | 16.8 | > 100 | 3.28 | 10.1 | 45.2 | 6.25 | 13.8 | 29.4 | 15.3 | 1.97 | 3.04 | 4.44 | – |
| CC(=O)OC12CC(C)C3(O)C4C=C(C)C(=O)[C@@]4(O)CC(CO)=C[C@H]3C1C2(C)C (stereo partly drawn) | > 1000 | > 1000 | > 1000 | > 1000 | > 1000 | – | > 1000 | – | – | > 1000 | > 1000 | > 1000 | > 1000 | – | – | > 1000 | – | > 1000 | > 1000 | 0.432 µM and 0.751 µM |
